US20250051293A1, “NOVEL OXADIAZOLE DERIVATIVE AND USE THEREOF” (CELROS BIOTECH, priority 2021, published 2025)
Read-outs that look alike come from different tables or passages of the source.

Assays:
[1] = molecular target: T1, human NOX4 (Homo sapiens, UniProt Q9NPH5); assay: Lucigenin chemiluminescence assay, drosophila membranes expressing hNOX4; format: biochemical; settings: average of three repeats
T1 construct: made in house; host or cells: transgenic Drosophila (Da-GAL4 driven UAS-hNOX4, dDuox RNAi background); membranes from homogenized flies
T1 sequence (Q9NPH5 1-578): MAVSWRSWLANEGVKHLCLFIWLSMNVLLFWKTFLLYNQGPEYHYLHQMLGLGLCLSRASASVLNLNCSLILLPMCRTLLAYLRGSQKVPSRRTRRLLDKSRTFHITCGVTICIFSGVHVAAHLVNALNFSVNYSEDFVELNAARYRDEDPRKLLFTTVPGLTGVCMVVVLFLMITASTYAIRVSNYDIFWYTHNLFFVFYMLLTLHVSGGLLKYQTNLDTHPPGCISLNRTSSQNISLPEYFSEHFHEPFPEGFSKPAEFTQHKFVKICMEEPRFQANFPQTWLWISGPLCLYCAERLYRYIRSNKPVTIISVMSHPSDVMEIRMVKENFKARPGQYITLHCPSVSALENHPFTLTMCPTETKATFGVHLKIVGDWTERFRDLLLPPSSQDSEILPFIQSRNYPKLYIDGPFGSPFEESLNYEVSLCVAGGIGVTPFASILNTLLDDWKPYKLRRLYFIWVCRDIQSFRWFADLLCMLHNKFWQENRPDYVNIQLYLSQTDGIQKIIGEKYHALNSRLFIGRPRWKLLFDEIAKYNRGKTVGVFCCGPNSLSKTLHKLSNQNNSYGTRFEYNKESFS
Experimental: (§1) Human NOX isozymes were provided from transgenic flies expressing human NOX isozymes from the daughterless (Da)-GAL4 promoter. The genotype of each fly line is shown below. • human NOX2:UAS-hNOX2/UAS-dDuox-RNAi; Da-GAL4/+ • human NOX4:UAS-hNOX4/UAS-dDuox-RNAi; Da-GAL4/+
(§2) Transgenic flies were homogenized in PBS containing protease inhibitors (aprotinin, leupeptin) to obtain drosophila membranes of each NOX isozyme. The membranes were incubated with the compounds (100 μM, 10 μM, 1 μM, 0.1 μM, 0.01 μM, 0.001 μM, and 0 μM) for 10 minutes in a shaker. Then, to the membranes, a mixture of 500 μM NADPH (R-nicotinamide adenine dinucleotide 2′-phosphate reduced tetrasodium salt hydrate; Sigma-Aldrich) and 400 μM lucigenin (N,N′-dimethyl-9,9-biacridinium dinitrate; Sigma-Aldrich) in 1× HEPES (4-(2-hydroxyethyl)-1-piperazineethanesulfonic acid) buffer was added. Lucigenin chemiluminescence was detected at 1-minute intervals for 10 minutes using a multimode microplate reader (SpectraMax iD3, Molecular Devices). IC50 values were calculated with Graph-Pad Prism 5 (GraphPad Software).
(§3) The lucigenin chemiluminescence assay was performed with drosophila membranes expressing hNOX1, hNOX2, and hNOX4. The assay was repeated three times and the IC50 values were averaged.

[2] = molecular target: T2, human NOX2 (Homo sapiens, UniProt P04839); assay: Lucigenin chemiluminescence assay, drosophila membranes expressing hNOX2; format: biochemical; settings: average of three repeats
T2 construct: made in house; host or cells: transgenic Drosophila (Da-GAL4 driven UAS-hNOX2, dDuox RNAi background); membranes from homogenized flies
T2 sequence (P04839 2-570 limits assumed): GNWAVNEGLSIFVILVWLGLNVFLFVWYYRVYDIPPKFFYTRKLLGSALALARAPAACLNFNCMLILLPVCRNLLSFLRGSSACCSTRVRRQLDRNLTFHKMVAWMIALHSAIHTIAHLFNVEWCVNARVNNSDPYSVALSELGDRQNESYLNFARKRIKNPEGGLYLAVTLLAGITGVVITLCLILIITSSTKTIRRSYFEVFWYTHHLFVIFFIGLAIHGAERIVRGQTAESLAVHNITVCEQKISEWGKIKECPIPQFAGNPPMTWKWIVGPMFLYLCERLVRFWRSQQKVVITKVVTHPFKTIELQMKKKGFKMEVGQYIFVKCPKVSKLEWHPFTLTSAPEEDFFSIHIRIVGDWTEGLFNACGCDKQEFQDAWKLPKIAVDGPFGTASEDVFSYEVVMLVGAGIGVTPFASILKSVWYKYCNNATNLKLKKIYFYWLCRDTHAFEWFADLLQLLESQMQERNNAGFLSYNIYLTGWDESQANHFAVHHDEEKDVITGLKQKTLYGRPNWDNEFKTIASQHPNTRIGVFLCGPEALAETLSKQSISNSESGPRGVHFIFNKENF
Experimental: as §1, §2, §3

[3] = Metabolic stability in human liver microsomes; format: in vitro ADME; settings: human liver microsomes 0.5 mg/ml, 1 μM, 30 minutes, 37° C., NADPH
Experimental: The stability of a drug may be predicted by using liver microsomes to determine the extent to which the drug is metabolized in the liver. […] Thus, a metabolic stability verification experiment was performed on the oxadiazole derivatives according to The present disclosure.
Specifically, sample treatment human liver microsomes (0.5 mg/ml), 0.1 M phosphate buffer (pH 7.4), and test compound at a concentration of 1 μM were added, and the mixture was pre-incubated at 37° C. for 5 minutes, followed by addition of NADPH Regeneration system solution and incubation at 37° C. for 30 minutes. An acetonitrile solution containing an internal standard (chlorpropamide) was then added to terminate the reaction, followed by centrifugation for 5 minutes (14,000 rpm, 4° C.). Then, the supernatant was injected into the LC-MS/MS system to analyze the substrate drug to evaluate the metabolic stability of the two compounds.
The HPLC column was an Acquity UPLC BEH Amide column (2.1×100 mm, 1.7 μm particle size; Waters, Ireland). The mobile phases were distilled water containing 0.1% formic acid (A) and acetonitrile containing 0.1% formic acid (B). Data analysis was performed using Analyst software (version 1.6.3).

[4] = PAMPA-BBB assay; format: in vitro ADME
Experimental: The parallel artificial membrane permeability assay (PAMPA) was performed to determine the brain barrier blood (BBB) permeability. […] For the Blank measurement, the donor buffer was dispensed into a high sensitivity UV plate at 150 μl per well and the UV values were measured (Blank sample). For the initial value measurement, the mixture in the deep well plate was dispensed 150 μl per well into the UV plate and the UV values were measured (initial sample). Next, 200 μl of the test compound mixture was dispensed onto the donor plate of the PAMPA sandwich, and the acceptor plate of the PAMPA sandwich was inverted and the membrane was coated with 5 μl of BBB-lipid solution. Then, 200 μl of acceptor sink buffer was added to each well of the acceptor plate, and the acceptor plate and donor plate were combined and incubated at 25° C. for 4 hours. […] Finally, the permeability (Pe(10^−6 cm/sec)) was analyzed using the PAMPA explore program. The experiment was performed in three replicates. The permeability of the material was analyzed by UV measurement and LC-MS/MS, the specific conditions of which are described below.

[5] = tested on: U87; assay: Mouse model xenografted with brain tumor glioblastoma U87; format: in vivo, mice; settings: Example 2 study: Example 2 50 mg/kg 5 times per week, TMZ 5 mg/kg 2 times per week, from 20 days after xenografting; vehicle 42 days
Experimental: To confirm the therapeutic effect on brain tumor glioblastoma, U87 (5×10^4), a human brain tumor cell line, was xenografted into the brains of mice to establish a brain tumor model, followed by oral administration of the drugs.
Different experimental groups were evaluated for each compound.
First, with respect to the compound of Example 1, the experimental groups were divided into Vehicle (n=3) and the compound of Example 1, 50 mg/kg (n=3) and the administered with the drug orally 5 times a week 20 days after U87 xenografting.
With respect to the compound of Example 2, the experimental groups were divided into Vehicle (n=9), TMZ 5 mg/kg (Temozolomide, n=10, 2 times per week), the compound of Example 2, 50 mg/kg (n=8, 5 times per week), and combination (TMZ+the compound of Example 2, n=7), and began receiving the drug 20 days after U87 xenografting.

[6] = 50 μM, incubation 4 hr, pH 7.4, 25° C., U.V, read-out: Permeability Pe

Row | IC50 [1] | IC50 [2] | Human (% ) remaining, microsomal stability [3] | Papp at 4 h, 50 μM [4, 6] | Papp at 4 h, 50 μM ([4]; pH 7.4) | SMILES | median survival time [5]
1 | 140 nM | 180 nM | – | – | – | O=C(Nc1nnc(-c2cccc(C(F)(F)F)c2)o1)c1ccc(F)c(C(F)(F)F)c1 [Example 5, 4-fluoro-3-(trifluoromethyl)-N-(5-(3-(trifluoromethyl)phenyl)-1,3,4-oxadiazol-2-yl)benzamide] | –
2 | 130 nM | 150 nM | – | – | – | O=C(Nc1nnc(-c2cccc(-c3ccsc3)c2)o1)c1cc(F)cc(C(F)(F)F)c1 [Example 9] | –
3 | 170 nM | 150 nM | 79.0% | > 0.4 ×10⁻⁶ cm/s | – | O=C(Nc1nnc(-c2cccc(Br)c2)o1)c1cc(F)cc(C(F)(F)F)c1 [Example 13, N-(5-(3-bromophenyl)-1,3,4-oxadiazol-2-yl)-3-fluoro-5-(trifluoromethyl)benzamide] | –
4 | 190 nM | 160 nM | – | – | – | O=C(Nc1nnc(-c2cccc(-c3ccsc3)c2)o1)c1ccc(F)c(C(F)(F)F)c1 [Example 8] | –
5 | – | – | – | – | > 0.4 ×10⁻⁶ cm/s | CC(=O)[C@H]1CC[C@H]2[C@@H]3CCC4=CC(=O)CC[C@]4(C)[C@H]3CC[C@]12C [Progesterone, reference compound] | –
6 | 250 nM | 210 nM | – | – | – | O=C(Nc1nnc(-c2cccc(Br)c2)o1)c1ccc(F)c(C(F)(F)F)c1 [Example 4, N-(5-(3-bromophenyl)-1,3,4-oxadiazol-2-yl)-4-fluoro-3-(trifluoromethyl)benzamide] | –
7 | 270 nM | 230 nM | – | – | – | O=C(Nc1nnc(-c2cccc(Cl)c2)o1)c1ccc(F)c(C(F)(F)F)c1 [Example 6, N-(5-(3-chlorophenyl)-1,3,4-oxadiazol-2-yl)-4-fluoro-3-(trifluoromethyl)benzamide] | –
8 | 120 nM | 140 nM | 90.0% | – | – | O=C(Nc1nnc(-c2cccc(C(F)(F)F)c2)o1)c1cc(F)cc(C(F)(F)F)c1 [Example 12, 3-fluoro-5-(trifluoromethyl)-N-(5-(3-(trifluoromethyl)phenyl)-1,3,4-oxadiazol-2-yl)benzamide] | –
9 | – | – | – | – | – | Cn1nnc2c(C(N)=O)ncn2c1=O [TMZ, Temozolomide, reference compound] | 54.5 days
10 | – | – | – | – | < 0.4 ×10⁻⁶ cm/s | CNC(=C[N+](=O)[O-])NCCSCc1ccc(CN(C)C)o1 [Ranitidine, reference compound] | –
11 | 120 nM | 190 nM | – | – | – | O=C(Nc1nnc(-c2ccccc2)o1)c1ccc(I)c(C(F)(F)F)c1 [Example 7, 4-iodo-N-(5-phenyl-1,3,4-oxadiazol-2-yl)-3-(trifluoromethyl)benzamide] | –
12 | 260 nM | 170 nM | – | > 0.4 ×10⁻⁶ cm/s | – | O=C(Nc1nnc(-c2cccc(-c3ccoc3)c2)o1)c1cc(F)cc(C(F)(F)F)c1 [Example 11] | –
13 | 380 nM | 240 nM | – | – | – | O=C(Nc1nnc(-c2ccccc2)o1)c1cc(F)cc(C(F)(F)F)c1 [Example 3, 3-fluoro-N-(5-phenyl-1,3,4-oxadiazol-2-yl)-5-(trifluoromethyl)benzamide] | –
14 | 160 nM | 100 nM | 94.9% | > 0.4 ×10⁻⁶ cm/s | – | O=C(Nc1nnc(-c2cccc(-c3ccoc3)c2)o1)c1ccc(F)c(C(F)(F)F)c1 [Example 10] | –
